Data set [1] in a line: Pharmacokinetic study in dogs (Test Example 1), intragastric administration. Type of data set: in vivo. To be noted: beagles; for AUC(0-inf) / AUC(0-t) / Cmax / Tmax / half-life: beagle, dog, plasma, mean value. The protocol:
(§1) 1.1.1. Experimental Animals: Beagles, Non-Naïve, Sourced from the Animal Repository of Medicilon: 999M-004.
A proper amount of tolvaptan and compound 5 was accurately weighed out and well mixed with a proper volume of 1% hydroxypropyl methylcellulose by vortexing or ultrasonication to give a 0.5 mg/mL solution of tolvaptan and a 2.15 mg/mL solution of compound 5 for intragastric administration.
Tolvaptan and compound 5 were intragastrically administrated. Blood was collected before the administration and 10 min, 30 min, 1 h, 2 h, 4 h, 6 h, 8 h and 24 h after the administration. EDTA-K2 was used as the anticoagulant, and the esterase inhibitor DDVP (manufacturer: Sigma) was added. Plasma samples were separated and cryopreserved at −70° C., and the compound 5 and tolvaptan levels were determined by LC-MS/MS.

Data set [2] concerns the target T1, Arginine vasopressin receptor 2 (AVPR2) (Homo sapiens, UniProt P30518).
T1 construct: host or cells: Flpin-CHO (CHO cells)
The data set is described as follows: Arginine vasopressin receptor 2 (AVPR2) receptor cAMP assay in Flpin-CHO-AVPR2 cells. Type of data set: cell-based, humans. The note with it: arginine vasopressin stimulation.
Procedure: The test compound was 5-fold diluted with assay buffer (Hank's balanced salt solution+20 mM HEPES+0.1% BSA+500 μM IBMX (manufacturer: Sigma)). The highest initial concentration of the test compound in the assay was 10 μM.
Flpin-CHO-AVPR2 (the cell strain was constructed by Pharmaron Beijing Co., Ltd.; AVPR2 was derived from humans)
• 1) Cells were digested, resuspended in assay buffer and inoculated into a 384-well cell culture plate at a density of 8000 cells per well and a volume of 15 μL per well. • 2) The compound was diluted with assay buffer. • 3) 2.5 μL of the compound was added to each well, and the plate was incubated at 37° C. for 10 min. • 4) Arginine vasopressin (manufacturer: MedChemExpress) was diluted with assay buffer to a concentration of 16 μM. • 5) 2.5 μL of the 16 μM solution of arginine vasopressin was added, and the plate was incubated at 37° C. for 30 min. • 6) Eu-cAMP tracer and Ulight-anti-cAMP were thawed and diluted with lysis buffer (Eu-cAMP tracer, Ulight-anti-cAMP and lysis buffer were all taken from the cAMP assay kit (manufacturer: Perkin Elmer)). • 7) 10 μL of Eu-cAMP tracer was added to the experimental wells, and then 10 μL of Ulight-anti-cAMP was added to the experimental wells. • 8) The reaction plate was centrifuged at room temperature at 200 g for 30 s and left at 25° C. for 1 h, and data collection was performed using a microplate reader.

Data set [3] in a line: Pharmacokinetic study in rats (Test Example 4), intragastric administration. It counts as in vivo. The note with it: Sprague-Dawley, rat, plasma, SD rats, mean value. Here is the method: 1.1.1. Experimental Animals: SD Rats, Male and Female, Weighing about 180-220 g. Housing Environment: SPF. The Animals were Transferred from the Animal Repository (999M-017) of the Laboratory Animal Management Department, Shanghai Institute of Planned Parenthood Research. 1.1.2. Administration Regimen:
Tolvaptan and compound 5 were intragastrically administrated. Blood was collected before the administration and 10 min, 0.5 h, 1 h, 2 h, 4 h, 6 h, 8 h and 24 h after the administration. EDTA-K2 was used as the anticoagulant, and the esterase inhibitor DDVP was added. Plasma samples were separated and cryopreserved at −70° C., and the compound 5 and tolvaptan levels were determined by LC-MS/MS.

A short description of data set [4]: Pharmacokinetic study in beagles (Test Example 5), intravenous drip and intragastric administration. Type of data set: in vivo. The note with it: for AUC(0-t) / Cmax / Tmax / half-life: beagle, dog, plasma. The protocol: as §1
(§2) A proper amount of compound 1b disodium salt and compound 5 was accurately weighed out and well mixed with a proper volume of normal saline by vortexing or ultrasonication to give a 0.5 mg/mL clear solution of compound 1b disodium salt, a 0.25 mg/mL clear solution of compound 5 and a 1.35 mg/mL clear solution of compound 5 for intravenous drip administration.
(§3) A proper amount of tolvaptan and compound 5 was accurately weighed out and well mixed with a proper volume of 1% hydroxypropyl methylcellulose by vortexing or ultrasonication to give a 5 mg/mL solution of tolvaptan and a 1.35 mg/mL solution of compound 5 for intragastric administration.
(§4) The compounds of the intravenous administration group were administered via an intravenous drip over 1 h. The compounds of the intragastric administration group were intragastrically administered. Time points of blood collection were: before the administration and 30 min, 1 h, 1.5 h, 2 h, 4 h, 6 h, 12 h and 24 h after the administration. About 1 mL of blood was collected via the jugular vein or in other suitable ways. EDTA-K2 was used as the anticoagulant, and the esterase inhibitor DDVP was added. Plasma samples were separated and cryopreserved at −70° C., and the levels of related compounds in vivo were determined by LC-MS/MS. About 0.5 mL of blood was collected via the jugular vein or in other suitable ways, placed into separator gel blood collection tubes (without an anticoagulant) and centrifuged at room temperature at 3500 rpm for 10 min to separate the serum, and the concentration of Na^+ in the serum was determined by using the ion-selective electrode method.

For the next data set, the system named is beagles. In words: Blood sodium level (serum Na+, ion-selective electrode) in beagles (Test Example 5). Type of data set: in vivo. To be noted: compound 5 administered intragastrically 2.7 mg/kg, FIG. 1. Here is the method: as §2, §3
as §4, with “Time points of blood collection were: before the administration and 30 min, 1 h, 1.5 h, 2 h, 4 h, 6 h, 12 h and 24 h after the administration. About 1 mL of blood was collected via the jugular vein or in other suitable ways. EDTA-K2 was used as the anticoagulant, and the esterase inhibitor DDVP was added.” left out

Data set [5] is described as follows: Pharmacokinetic study in rats (Test Example 3), intravenous injection. Type of data set: in vivo. The note with it: SD rats. An excerpt:
1.1.1. Experimental Animals: SD Rats, Male and Female, Weighing about 220 g. Housing Environment: SPF. The Animals were Transferred from the Animal Repository (999M-017) of the Laboratory Animal Management Department, Shanghai Institute of Planned Parenthood Research. 1.1.2. Administration Regimen:
A proper amount of the compound was accurately weighed out and well mixed with a proper volume of 10% DMSO+35% PEG400+55% normal saline by vortexing or ultrasonication to give a clear solution for intravenous injection.
Blood was collected at various time points after intravenous injection (before the administration and 0.0833, 0.25, 0.5, 1, 2, 4, 8 and 24 h after the administration). EDTA-K2 was used as the anticoagulant, and the esterase inhibitor DDVP was added. Plasma samples were separated and cryopreserved at −70° C., and the compound and tolvaptan levels were determined by LC-MS/MS.

Setting [6] is: Compound 5 administered PO 4.3 mg/kg, molecule detected Compound 5.
Where [7] appears, read: intragastric, tolvaptan converted in vivo from compound 5 vs tolvaptan administered.
Where [8] appears, read: female, Compound 5 PO 12.9 mg/kg, molecule detected Compound 5.
Setting [9] is: male, Compound 5 PO 12.9 mg/kg, molecule detected Compound 5.
The mark [10] stands for this setting: iv, Compound 5 0.5 mg/kg i.v. drip over 1 h, molecule detected Compound 5, mean value.
Setting [11] is: iv, Compound 5 2.7 mg/kg i.v. drip over 1 h, molecule detected Compound 5, mean value.
The mark [12] stands for this setting: po, Compound 5 2.7 mg/kg p.o., molecule detected Compound 5, mean value.
[13] abbreviates: both sexes, Sprague-Dawley, rat, plasma, iv, Compound M i.v. 3.91 mg/kg, molecule detected Compound M, mean value.
[14] abbreviates: Tolvaptan administered PO 1 mg/kg, molecule detected Tolvaptan.
[15] abbreviates: female, Tolvaptan PO 9 mg/kg, molecule detected Tolvaptan.
[16] abbreviates: male, Tolvaptan PO 9 mg/kg, molecule detected Tolvaptan.
Setting [17] is: po, Tolvaptan 10 mg/kg p.o., molecule detected Tolvaptan, mean value.

By AUC(0-inf) is commonly meant total exposure, with the tail of the curve extrapolated. By AUC(0-t) is commonly meant exposure summed from dosing to a finite time, without extrapolation to infinity. For orientation: Cmax means the maximum level reached in the sampled fluid or tissue. As a reminder, the Tmax is the time from dosing to the highest level. By half-life is commonly meant the time in which the quantity being followed falls by half. The low end stands for fast loss, the high end for slow loss. A word on the IC50: it is the point on the concentration scale where inhibition reaches its midpoint. Low values mean greater potency, high ones weaker potency. The clearance is a measure of how efficiently the substance is removed, as volume per time. Higher therefore signals efficient removal.

T1 sequence (P30518 whole entry): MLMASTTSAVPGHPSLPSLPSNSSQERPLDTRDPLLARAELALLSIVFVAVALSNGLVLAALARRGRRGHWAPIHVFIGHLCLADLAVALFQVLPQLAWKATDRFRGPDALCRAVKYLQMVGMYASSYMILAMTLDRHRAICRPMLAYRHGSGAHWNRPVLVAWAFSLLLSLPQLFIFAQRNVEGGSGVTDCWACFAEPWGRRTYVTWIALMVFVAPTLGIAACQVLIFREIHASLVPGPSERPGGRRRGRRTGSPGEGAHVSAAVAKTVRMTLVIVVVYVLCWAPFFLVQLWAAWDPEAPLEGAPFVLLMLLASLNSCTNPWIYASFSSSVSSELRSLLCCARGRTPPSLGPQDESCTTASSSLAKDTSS

In the case of `Cc1ccccc1C(=O)Nc1ccc(C(=O)N2CCCC(OCOP(=O)(O)OCC[N+](C)(C)C)c3cc(Cl)ccc32)c(C)c1` (stereo not drawn) [Compound 5, ((7-Chloro-1-(2-methyl-4-(2-methylbenzamido)benzoyl)-2,3,4,5-tetrahydro-1H-benzo[b]azepin-5-yl)oxy)methyl (2-(trimethylammonio)ethyl) phosphate], in data set [1] (setting [6]), the area under the curve AUC(0-inf) amounted to 162 ng·h/mL, the AUC(0-t) is 156 ng·h/mL, the peak level (Cmax) was 88.7 ng/mL and the time of peak concentration (Tmax) was 0.389 h. The molecule also gave a half-life in data set [1] (setting [6]) of 1.43 h. Also, in data set [1] (setting [7]), the “exposure compared with tolvaptan” value is recorded as “higher exposure” and the “half-life compared with tolvaptan” value is on record as “longer half-life”. This molecule also came in with an IC50 in data set [2] of 8 nM. For the same molecule, in data set [3] (setting [8]), the exposure AUC(0-t) is 58.4 ng·h/mL, the highest level (Cmax) was 50.1 ng/mL, the Tmax came out at 0.167 h and the half-life was 1.67 h. Besides, in data set [3] (setting [9]), the area under the curve AUC(0-t) turned out to be 46.1 ng·h/mL, the peak level (Cmax) was 44.4 ng/mL, the Tmax is 0.167 h and the half-life is 1.55 h. Further, in data set [4] (setting [10]), the area under the curve AUC(0-t) is 1200 ng·h/mL, the peak level (Cmax) was 889 ng/mL, the Tmax was 1 h and the half-life was 0.704 h. In data set [4] (setting [11]), the AUC(0-t) worked out at 7850 ng·h/mL, the highest level (Cmax) was 5700 ng/mL, the Tmax worked out at 1 h and the half-life is 0.647 h. For the same molecule, in data set [4] (setting [12]), the area under the curve AUC(0-t) is 122 ng·h/mL, the Cmax was determined as 61.5 ng/mL, the Tmax came to 0.5 h and the half-life is 1 h. Also, the “AUC0-t of tolvaptan converted from compound 5 compared with tolvaptan administered intragastrically” value in data set [4] (intragastric, compound 5 at a relatively low molar dose (2.7 mg/kg vs tolvaptan 10 mg/kg)) is on record as “higher AUC0-t”. Moreover, the “elevating the blood sodium level” value with beagles is reported as “has the effect of elevating the blood sodium level”.
On to `Cc1ccccc1C(=O)Nc1ccc(C(=O)N2CCCC(OC(=O)[C@@H](N)C(C)C)c3cc(Cl)ccc32)c(C)c1` (stereo partly drawn) [Compound M], for which, in data set [5] (setting [13]), the area under the curve AUC(0-inf) was determined as 824 ng·h/mL, the AUC(0-t) came out at 786 ng·h/mL, the highest level (Cmax) was 719 ng/mL and the Tmax was determined as 8.34 min. In data set [5] (setting [13]), the clearance is 90.8 mL/min/kg and the half-life was 1.17 h. The Vd in data set [5] (both sexes, Sprague-Dawley, rat, plasma, iv, Compound M i.v. 3.91 mg/kg, molecule detected Compound M, mean value, read-out: Vss) was determined as 6.47 L/kg.
As to `Cc1ccccc1C(=O)Nc1ccc(C(=O)N2CCCC(OC(=O)OCOC(=O)C(N)C(C)C)c3cc(Cl)ccc32)c(C)c1.Cl` (stereo not drawn) [Hydrochloride of Compound 16], the “plasma level of administered molecule” value in data set [5] (Hydrochloride of Compound 16 i.v. 4.41 mg/kg, molecule detected Hydrochloride of Compound 16) is reported as “Undetectable”.
`Cc1ccccc1C(=O)Nc1ccc(C(=O)N2CCCC(O)c3cc(Cl)ccc32)c(C)c1` (stereo not drawn) [Tolvaptan, reference compound]: in data set [1] (setting [14]), the AUC(0-inf) is 26.3 ng·h/mL, the AUC(0-t) is 21.6 ng·h/mL, the peak level (Cmax) was 7.08 ng/mL and the time of peak concentration (Tmax) came to 1.5 h. This molecule had a half-life in data set [1] (setting [14]) of 1.94 h. In addition, in data set [3] (setting [15]), the area under the curve AUC(0-t) is 1820 ng·h/mL, the Cmax was 412 ng/mL, the Tmax came out at 2 h and the half-life was 2.64 h. Further, in data set [3] (setting [16]), the AUC(0-t) was determined as 55.5 ng·h/mL, the highest concentration (Cmax) was 20.3 ng/mL and the Tmax was found to be 1.67 h. In data set [4] (setting [17]), the AUC(0-t) amounted to 10.2 ng·h/mL, the concentration peaked (Cmax) at 3.83 ng/mL, the Tmax amounted to 1.17 h and the half-life was 2.61 h.
